Data taken from the supplement of paper PMC8671470.

What was measured:
Experiment in all cases: cell viability (% survival relative to DMSO control, bortezomib = 0%); higher = less cytotoxic
Details in all cases: 72 h
K-562 = test system: K-562
How it was run: (§1)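 Fifteen myeloid leukaemia cell lines were exposed to compounds at 1, 10, 100, 1000 or 10000 nM in 384-well plates for 72 h at 37 °C and 5% CO2. Viability was read by CellTiter-Glo luminescence and normalised, with vehicle as 100% and a 10 µM positive control as 0%. Values are percent survival averaged over duplicates.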

HL-60 = test system: HL-60
How it was run: as §1

BV-173 = test system: BV-173
How it was run: as §1

ML-2 = test system: ML-2
How it was run: as §1

Row | SMILES | cell viability (K-562; 1 nM) [%] | cell viability (K-562; 10 nM) [%] | cell viability (K-562; 100 nM) [%] | cell viability (K-562; 1000 nM) [%] | cell viability (K-562; 10000 nM) [%] | cell viability (HL-60; 1 nM) [%] | cell viability (HL-60; 10 nM) [%] | cell viability (HL-60; 100 nM) [%] | cell viability (HL-60; 1000 nM) [%] | cell viability (HL-60; 10000 nM) [%] | cell viability (BV-173; 1 nM) [%] | cell viability (BV-173; 10 nM) [%] | cell viability (BV-173; 100 nM) [%] | cell viability (BV-173; 1000 nM) [%] | cell viability (BV-173; 10000 nM) [%] | cell viability (ML-2; 1 nM) [%] | cell viability (ML-2; 10 nM) [%] | cell viability (ML-2; 100 nM) [%] | cell viability (ML-2; 1000 nM) [%] | cell viability (ML-2; 10000 nM) [%]
1 | CC12CCC(O)CC1CCC1C2CCC2(C)C(C3=CC(=O)OC3)CCC12O (stereo not given) [Digitoxigenin] | 94.8 | 106 | 77.1 | 3.12 | -1.21 | 101 | 105 | 103 | 1.05 | -1.85 | 106 | 95.9 | 86.2 | 2.96 | -1.17 | 97.3 | 97.5 | 107 | 0.616 | -1.47
2 | C1CCc2nnc(C34CC5CC(CC(C5)C3)C4)n2CC1 [MERCK-544] | 109 | 117 | 89.3 | 103 | 129 | 94.7 | 154 | 103 | 74.8 | 129 | 107 | 66.3 | 85.7 | 94.7 | 92.2 | 101 | 97.5 | 93.5 | 87.7 | 96.6
3 | Cc1c(-c2ccccc2)oc2c(C(=O)OCCN3CCCCC3)cccc2c1=O.Cl [Flavoxate] | 91 | 90 | 89.8 | 98.8 | 83.2 | 89.2 | 121 | 90.7 | 102 | 103 | 86.9 | 100 | 95.6 | 94.1 | 97.9 | 99.1 | 99.5 | 105 | 101 | 103
4 | CCCc1nn(C)c2c(O)nc(-c3cc(S(=O)(=O)N4CCN(C)CC4)ccc3OCC)nc12 [Sildenafil] | 91.1 | 93 | 94.9 | 110 | 103 | 99.7 | 88.7 | 100 | 82.9 | 111 | 87.4 | 106 | 94.4 | 109 | 92.1 | 92.3 | 103 | 93.1 | 109 | 107
5 | C[C@]12CC[C@H](O)CC1=CC[C@@H]1[C@@H]2CC[C@]2(C)C(c3cccnc3)=CC[C@@H]12 [Abiraterone] | 109 | 113 | 107 | 112 | 89.4 | 142 | 97.7 | 136 | 80.3 | 124 | 91.8 | 96.8 | 93.5 | 116 | 108 | 116 | 97.2 | 101 | 118 | 110
6 | C#Cc1cnc(O)nc1O [Eniluracil] | 101 | 113 | 113 | 102 | 94.5 | 112 | 134 | 123 | 95.1 | 111 | 94.6 | 115 | 106 | 109 | 85.9 | 102 | 120 | 110 | 97.3 | 107
7 | Cc1coc2c1C(=O)C(=O)c1c-2ccc2c(C)cccc12 [Tanshinone I] | 98.6 | 100 | 106 | 82.7 | 79.8 | 99 | 105 | 117 | 105 | 79.7 | 109 | 103 | 92 | 94 | 83.6 | 113 | 114 | 97.8 | 103 | 71.1
8 | c1ccc2c(c1)OCC(=C1NCCN1)O2 [Idazoxan] | 80 | 98.1 | 90.7 | 100 | 90.9 | 89.1 | 80.3 | 80 | 97.2 | 75.9 | 87.3 | 108 | 80.7 | 89.3 | 73.2 | 97.4 | 97.9 | 86.9 | 94.2 | 93.7
9 | Clc1ccc2c(c1Cl)CNCC2 | 103 | 97.7 | 95.4 | 107 | 88.7 | 101 | 194 | 90.1 | 103 | 95.8 | 95 | 95.9 | 103 | 107 | 83.6 | 91.5 | 118 | 90 | 102 | 87.9
10 | CCOC(=O)[C@H]1O[C@@H]1C(=O)N[C@@H](CC(C)C)C(=O)NCCC(C)C [Aloxistatin] | 90.9 | 112 | 85.4 | 105 | 99.1 | 103 | 120 | 108 | 114 | 74 | 96.7 | 118 | 105 | 96.7 | 91.5 | 99 | 86.2 | 87.1 | 100 | 88.3
11 | Cc1noc2c1-c1ccccc1C(c1ccc(Cl)cc1)=N[C@H]2CC(N)=O [CPI-0610] | 87.7 | 88.2 | 80.7 | 32.1 | 34.5 | 110 | 102 | 69.4 | 33 | 16.1 | 92.3 | 87.8 | 83.4 | 33.5 | 10.9 | 108 | 91.2 | 92.5 | 62.9 | 33.9
